The target of test [1] is Beta Secretase enzyme (BACE) (Homo sapiens, UniProt P56817). The test can be described thus: In vitro enzymatic BACE FRET assay. Format: biochemical. Particulars: read-out: BACE1 FRET assay IC50. The method, boiled down: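 Cleavage of a quenched 50 nM FRET peptide substrate, read as fluorescence (excitation 488 nm, […]) after 1 h and Tris quench to neutrality. Buffer: 0.05 M acetate pH 4.2 with 10% DMSO and 100 uM genapol. Inhibitor dilutions were pre-incubated 1 h with 0.2 nM enzyme.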
Chain of Beta Secretase enzyme (BACE) (P56817 46-501): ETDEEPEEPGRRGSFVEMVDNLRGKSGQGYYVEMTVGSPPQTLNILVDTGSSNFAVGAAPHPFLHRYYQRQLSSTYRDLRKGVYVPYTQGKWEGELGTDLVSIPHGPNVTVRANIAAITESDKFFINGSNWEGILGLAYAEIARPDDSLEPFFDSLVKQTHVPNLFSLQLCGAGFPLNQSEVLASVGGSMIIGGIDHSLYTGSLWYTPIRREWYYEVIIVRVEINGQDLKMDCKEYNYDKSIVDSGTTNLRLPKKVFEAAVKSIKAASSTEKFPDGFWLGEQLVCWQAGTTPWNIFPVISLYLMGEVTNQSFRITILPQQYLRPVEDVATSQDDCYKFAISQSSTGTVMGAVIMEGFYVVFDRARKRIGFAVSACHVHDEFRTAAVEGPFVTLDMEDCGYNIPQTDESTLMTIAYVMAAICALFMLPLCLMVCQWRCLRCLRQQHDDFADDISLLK

For test [2], the system named is Aβ 40 in conditioned medium of cells stably expressing Amyloid Precursor Protein (APP). Kind of test: In vitro BACE cell-based assay (Aβ 40 sandwich ELISA). Particulars: Homo sapiens, HEK293. The method, boiled down:
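Aβ40 in conditioned medium measured by pAb40/biotin-6E10 sandwich ELISA with time-resolved europium fluorescence, after 24 h exposure of stable APP cells to compounds (10-point series starting 100 μM or 10 μM; 0.1% DMSO). IC50 fitted from percent of control against concentration.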

Test [3] concerns the target Cathepsin D (Cat D) (Homo sapiens, UniProt P07339). The test can be described thus: In vitro enzymatic Cathepsin D (Cat D) FRET assay. The test is classed as biochemical. The method, boiled down: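 FRET peptide substrate (20 nM) is cleaved by CHO-derived recombinant enzyme (9 nM) for 1 h after a 1 h inhibitor pre-incubation, at pH 3.5 in citrate buffer with 5 mM CHAPS and 10% DMSO. Tris addition ends the reaction; fluorescence measured at 500 nm excitation, 580 nm emission.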

Where [4] appears, read: text summary referring to data in Table 2.
[5] abbreviates: average IC50, in vitro enzymatic BACE FRET assay.
Setting [6] is: average IC50, HEK cell assay, Aβ 40 readout.
The mark [7] stands for this setting: Cathepsin D FRET assay, read-out: CatD IC50.

Read-outs that look alike come from different tables or passages of the source.

Chain of Cathepsin D (Cat D) (P07339 65-412, species assumed): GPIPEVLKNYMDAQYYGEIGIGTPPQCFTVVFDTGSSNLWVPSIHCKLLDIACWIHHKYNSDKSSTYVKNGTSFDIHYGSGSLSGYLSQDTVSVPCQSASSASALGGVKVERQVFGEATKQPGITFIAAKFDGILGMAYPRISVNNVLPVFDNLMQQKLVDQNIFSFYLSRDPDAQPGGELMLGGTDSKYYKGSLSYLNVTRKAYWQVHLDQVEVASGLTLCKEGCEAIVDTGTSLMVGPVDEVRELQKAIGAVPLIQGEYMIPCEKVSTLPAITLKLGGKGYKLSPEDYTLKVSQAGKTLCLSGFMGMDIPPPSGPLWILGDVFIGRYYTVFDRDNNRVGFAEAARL

With `C[C@H]1C[C@@H]2[C@](C)(N=C(N)C(C)(C)S2(=O)=O)c2cc(NC(=O)c3cnc(Cl)cn3)ccc2O1` [Example 75, N-((4aR,6S,11bR)-2-amino-3,3,6,11b-tetramethyl-4,4-dioxido-4a,5,6,11b-tetrahydro-3H-[1]benzoxepino[4,5-b][1,4]thiazin-10-yl)-5-chloro-2-pyrazinecarboxamide], the IC50 in test [1] (average IC50) was 0.004 µM; in test [2] (HEK cell, average IC50) it was 0.061 µM; in test [3] (read-out: CatD IC50), 217 µM.

Take `C[C@H]1C[C@@H]2[C@](C)(N=C(N)C(C)(C)S2(=O)=O)c2cc(NC(=O)c3cnc(OCc4ncco4)cn3)ccc2O1` [Example 76, N-((4aR,6S,11bR)-2-amino-3,3,6,11b-tetramethyl-4,4-dioxido-4a,5,6,11b-tetrahydro-3H-[1]benzoxepino[4,5-b][1,4]thiazin-10-yl)-5-(1,3-oxazol-2-ylmethoxy)-2-pyrazinecarboxamide]: the IC50 in test [1] (average IC50) was 0.002 µM; in test [2] (HEK cell, average IC50) it was 0.0009 µM; in test [3] (read-out: CatD IC50), 1050 µM; in test [3] (setting [4]), more than 1200 µM.

In the case of `Cc1c(C(=O)Nc2ccc3c(c2)[C@@]2(C)N=C(N)C(C)(C)S(=O)(=O)[C@@H]2C[C@H](C)O3)nc2ccc(Cl)cn12` [Example 77, N-((4aR,6S,11bR)-2-amino-3,3,6,11b-tetramethyl-4,4-dioxido-4a,5,6,11b-tetrahydro-3H-[1]benzoxepino[4,5-b][1,4]thiazin-10-yl)-6-chloro-3-methylimidazo[1,2-a]pyridine-2-carboxamide], the half-maximal inhibitory concentration (IC50) is 0.017 µM in test [1] (average IC50); 0.005 µM in test [2] (HEK cell, average IC50); 396 µM in test [3] (read-out: CatD IC50).

`Cc1cc(COc2cnc(C(=O)Nc3ccc4c(c3)[C@@]3(C)N=C(N)C(C)(C)S(=O)(=O)[C@@H]3C[C@H](C)O4)cn2)on1` [Example 78, N-((4aR,6S,11bR)-2-amino-3,3,6,11b-tetramethyl-4,4-dioxido-4a,5,6,11b-tetrahydro-3H-[1]benzoxepino[4,5-b][1,4]thiazin-10-yl)-5-((3-methyl-5-isoxazolyl)methoxy)-2-pyrazinecarboxamide]: the IC50 is 0.007 µM in test [1] (average IC50); 0.026 µM in test [2] (HEK cell, average IC50); 407 µM in test [3] (read-out: CatD IC50).

On to `CCCOc1cnc(C(=O)Nc2ccc3c(c2)[C@@]2(C)N=C(N)C(C)(C)S(=O)(=O)[C@@H]2C[C@H](C)O3)cn1` [Example 79, N-((4aR,6S,11bR)-2-amino-3,3,6,11b-tetramethyl-4,4-dioxido-4a,5,6,11b-tetrahydro-3H-[1]benzoxepino[4,5-b][1,4]thiazin-10-yl)-5-propoxy-2-pyrazinecarboxamide], for which the concentration for half-maximal inhibition (IC50) worked out at 0.005 µM in test [1] (average IC50); 0.016 µM in test [2] (HEK cell, average IC50); 841 µM in test [3] (read-out: CatD IC50).

`Cc1cnc(COc2cnc(C(=O)Nc3ccc4c(c3)[C@@]3(C)N=C(N)C(C)(C)S(=O)(=O)[C@@H]3C[C@H](C)O4)cn2)o1` [Example 80, N-((4aR,6S,11bR)-2-amino-3,3,6,11b-tetramethyl-4,4-dioxido-4a,5,6,11b-tetrahydro-3H-[1]benzoxepino[4,5-b][1,4]thiazin-10-yl)-5-((5-methyl-1,3-oxazol-2-yl)methoxy)-2-pyrazinecarboxamide]: the half-inhibitory concentration (IC50) in test [1] (average IC50) was 0.004 µM; in test [2] (HEK cell, average IC50), 0.001 µM; in test [3] (read-out: CatD IC50), 1490 µM; in test [3] (setting [4]), more than 1200 µM.

As for `C[C@H]1C[C@@H]2[C@](C)(N=C(N)C(C)(C)S2(=O)=O)c2cc(NC(=O)c3cnc(OCc4cnn(C)c4)cn3)ccc2O1` [Example 81, N-((4aR,6S,11bR)-2-amino-3,3,6,11b-tetramethyl-4,4-dioxido-4a,5,6,11b-tetrahydro-3H-[1]benzoxepino[4,5-b][1,4]thiazin-10-yl)-5-((1-methyl-1H-pyrazol-4-yl)methoxy)-2-pyrazinecarboxamide], the concentration for half-maximal inhibition (IC50) in test [1] (setting [5]) was 0.016 µM; in test [2] (setting [6]), 0.072 µM; in test [3] (setting [7]), 1310 µM; in test [3] (setting [4]) it was more than 1200 µM.

Regarding `C[C@H]1C[C@@H]2[C@](C)(N=C(N)C(C)(C)S2(=O)=O)c2cc(NC(=O)c3cnc(OCc4ccn(C)n4)cn3)ccc2O1` [Example 82, N-((4aR,6S,11bR)-2-amino-3,3,6,11b-tetramethyl-4,4-dioxido-4a,5,6,11b-tetrahydro-3H-[1]benzoxepino[4,5-b][1,4]thiazin-10-yl)-5-((1-methyl-1H-pyrazol-3-yl)methoxy)-2-pyrazinecarboxamide], the results for the IC50 in test [1] (setting [5]), in test [2] (setting [6]) and in test [3] (setting [7]) were 0.005 µM, 0.009 µM and 583 µM, respectively.

For the molecule `Cc1cc(C#CC2CC2)cnc1C(=O)Nc1ccc2c(c1)[C@@]1(C)N=C(N)C(C)(C)S(=O)(=O)[C@@H]1CCO2` [Example 83, N-((4aR,11bR)-2-amino-3,3,11b-trimethyl-4,4-dioxido-4a,5,6,11b-tetrahydro-3H-[1]benzoxepino[4,5-b][1,4]thiazin-10-yl)-5-(cyclopropylethynyl)-3-methyl-2-pyridinecarboxamide], the half-maximal inhibitory concentration (IC50) in test [1] (setting [5]) was 0.006 µM; in test [2] (setting [6]) it was 0.009 µM; in test [3] (setting [7]), 954 µM; in test [3] (setting [4]), more than 800 µM.

As for `Cc1cc(Cl)cnc1C(=O)Nc1ccc2c(c1)[C@@]1(C)N=C(N)C(C)(C)S(=O)(=O)[C@@]1(F)CCO2` [Example 87, N-((4aS,11bR)-2-amino-4a-fluoro-3,3,11b-trimethyl-4,4-dioxido-4a,5,6,11b-tetrahydro-3H-[1]benzoxepino[4,5-b][1,4]thiazin-10-yl)-5-chloro-3-methyl-2-pyridinecarboxamide], the half-maximal inhibitory concentration (IC50) in test [1] (setting [5]) was determined as 0.002 µM; in test [2] (setting [6]) it was 0.008 µM; in test [3] (setting [7]), 279 µM.

As to `CC1(C)C(N)=N[C@]2(C)c3cc(NC(=O)c4cnc(OCC5CC5)cn4)ccc3OCC[C@H]2S1(=O)=O` [Example 88, N-((4aR,11bR)-2-amino-3,3,11b-trimethyl-4,4-dioxido-4a,5,6,11b-tetrahydro-3H-benzo[6,7]oxepino[4,5-b][1,4]thiazin-10-yl)-5-(cyclopropylmethoxy)pyrazine-2-carboxamide], the IC50 was determined as 0.01 µM in test [1] (setting [5]), 0.044 µM in test [2] (setting [6]) and 745 µM in test [3] (setting [7]).

For `COc1cnc(C(=O)Nc2ccc3c(c2)[C@@]2(C)N=C(N)C(C)(C)S(=O)(=O)[C@@]2(F)CCO3)cn1` [Example 89, N-((4aS,11bR)-2-amino-4a-fluoro-3,3,11b-trimethyl-4,4-dioxido-4a,5,6,11b-tetrahydro-3H-[1]benzoxepino[4,5-b][1,4]thiazin-10-yl)-5-methoxy-2-pyrazinecarboxamide], the IC50 in test [1] (setting [5]) was 0.028 µM; in test [2] (setting [6]), 0.05 µM; in test [3] (setting [7]) it was 400 µM.

As for `CC1(C)C(N)=N[C@]2(C)c3cc(NC(=O)c4cnc(OCC(F)F)cn4)ccc3OCC[C@H]2S1(=O)=O` [Example 90, N-((4aR,11bR)-2-amino-3,3,11b-trimethyl-4,4-dioxido-4a,5,6,11b-tetrahydro-3H-benzo[6,7]oxepino[4,5-b][1,4]thiazin-10-yl)-5-(2,2-difluoroethoxy)pyrazine-2-carboxamide], the 50% inhibitory concentration (IC50) in test [1] (setting [5]) was found to be 0.007 µM; in test [2] (setting [6]), 0.011 µM; in test [3] (setting [7]) it was 919 µM.

As for `Cc1nc(OCC(F)F)cnc1C(=O)Nc1ccc2c(c1)[C@@]1(C)N=C(N)C(C)(C)S(=O)(=O)[C@@H]1CCO2` [Example 91, N-((4aR,11bR)-2-amino-3,3,11b-trimethyl-4,4-dioxido-4a,5,6,11b-tetrahydro-3H-[1]benzoxepino[4,5-b][1,4]thiazin-10-yl)-5-(2,2-difluoroethoxy)-3-methyl-2-pyrazinecarboxamide], the IC50 was 0.019 µM in test [1] (setting [5]), 0.027 µM in test [2] (setting [6]), 1870 µM in test [3] (setting [7]) and more than 1200 µM in test [3] (setting [4]).

With `COCc1ccc(C(=O)Nc2ccc3c(c2)[C@@]2(C)N=C(N)C(C)(C)S(=O)(=O)[C@@H]2CCO3)nc1` [Example 92, N-((4aR,11bR)-2-amino-3,3,11b-trimethyl-4,4-dioxido-4a,5,6,11b-tetrahydro-3H-[1]benzoxepino[4,5-b][1,4]thiazin-10-yl)-5-(methoxymethyl)-2-pyridinecarboxamide], the 50% inhibitory concentration (IC50) in test [1] (setting [5]) was 0.122 µM; in test [2] (setting [6]), 0.026 µM; in test [3] (setting [7]) it was 3050 µM; in test [3] (setting [4]) it was more than 1200 µM.

On to `Cc1cc(C(F)(F)F)cnc1C(=O)Nc1ccc2c(c1)[C@@]1(C)N=C(N)C(C)(C)S(=O)(=O)[C@]1(F)CCO2` [Example 93, N-((4aR,11bR)-2-amino-4a-fluoro-3,3,11b-trimethyl-4,4-dioxido-4a,5,6,11b-tetrahydro-3H-[1]benzoxepino[4,5-b][1,4]thiazin-10-yl)-3-methyl-5-(trifluoromethyl)-2-pyridinecarboxamide], for which the half-maximal inhibitory concentration (IC50) in test [1] (setting [5]) worked out at 0.011 µM; in test [2] (setting [6]) it was 0.054 µM; in test [3] (setting [7]), 513 µM.

As for `Cc1cc(OC(F)F)cnc1C(=O)Nc1ccc2c(c1)[C@@]1(C)N=C(N)C(C)(C)S(=O)(=O)[C@]1(F)CCO2` [Example 95, N-((4aR,11bR)-2-amino-4a-fluoro-3,3,11b-trimethyl-4,4-dioxido-4a,5,6,11b-tetrahydro-3H-[1]benzoxepino[4,5-b][1,4]thiazin-10-yl)-5-(difluoromethoxy)-3-methyl-2-pyridinecarboxamide], the IC50 worked out at 0.014 µM in test [1] (setting [5]), 0.061 µM in test [2] (setting [6]) and 248 µM in test [3] (setting [7]).

For the origin of these results see patent publication US9309263B2, “Fused multi-cyclic sulfone compounds as inhibitors of beta-secretase and methods of use thereof” (AMGEN INC., priority 2013, dated 2016).
